# Reference: patent US9346829B2, “5-HT3 receptor antagonists” (Takeda Phamaceutical Company Limited, priority 2012, dated 2016)
# pIC50: −log10 of the molar value. Counter-ions that a name gives are not always drawn. Like-named read-outs stand apart in the source and are kept apart here.
# Legend:
# 5-HT3a receptor = 5-HT3a receptor (Homo sapiens (Human), UniProt P46098); assay: Inhibition of Ca flux activity of 5-HT3 in vitro assay; format: cell-based
# Experimental: The 5-HT3 antagonist activity of the compounds of the invention was determined by measuring the ability of the compounds to inhibit the calcium flux activity of […] receptor expressed in HEK-293T cells. HEK-293T cells were transfected with the 5-HT3a expression construct using Xtreme Gene 9 (Roche) in 150 mm tissue culture treated plates and incubated for 24 hours at 37° C. Cells were then split and plated at a density of 60K cells/well in poly-lysine coated, black 96-well plates with clear bottoms (BD BioSciences) and incubated overnight at 37° C. Growth media was removed and cells loaded with 200 uL calcium indicator dye in HBSS containing 20 mM HEPES (Calcium 5 Assay kit, Molecular Devices) and incubated at 37° C. for 1 hour. While cells were incubating, the 10× antagonist and agonist/antagonist addition plates were made. For 10× antagonist plate: half log serial dilutions (final concentrations range from 10^−7 through 10^−10 with the bottom well a negative, no ligand control) were made from test compounds in DMSO at a 1000× concentration and then diluted to 10× in HBSS/20 mM HEPES. For addition plate: 5HT was diluted to 100× in HBSS/20 mM HEPES (final concentration in the assay—216 nM) and 15 uL was added to each well of the addition plate, 15 uL of 10× compound was also added to the addition plate, and finally 120 uL of HBSS/20 mM HEPES (for a total of 150 uL). Cells were then removed from the incubator and equilibrated to room temperature for 10 minutes, then 22.5 uL of 10× test compounds were added in triplicate to the plates and incubated at room temperature for 10 minutes (Tropisetron was used as a positive control in every assay). Test plate and addition plate were loaded into the FlexStation III (Molecular Devices), and using the fluidics, 22.5 uL compound additions were made (at t=˜17 seconds), and fluorescence was measured for 90 seconds, reading every 2.2 seconds. Data sets were analyzed as max minus min using Software Max Pro (Molecular Devices). IC50 curves were generated using non-linear regression in GraphPad Prism.
# nicotinic α-7 receptor = nicotinic α-7 receptor (Homo sapiens (Human), UniProt P36544); assay: Nicotinic α-7 receptor binding assay; settings: binding at the nicotinic α-7 receptor, carried out at Eurofins Pharma Services
# Chain of nicotinic α-7 receptor (P36544 23-502): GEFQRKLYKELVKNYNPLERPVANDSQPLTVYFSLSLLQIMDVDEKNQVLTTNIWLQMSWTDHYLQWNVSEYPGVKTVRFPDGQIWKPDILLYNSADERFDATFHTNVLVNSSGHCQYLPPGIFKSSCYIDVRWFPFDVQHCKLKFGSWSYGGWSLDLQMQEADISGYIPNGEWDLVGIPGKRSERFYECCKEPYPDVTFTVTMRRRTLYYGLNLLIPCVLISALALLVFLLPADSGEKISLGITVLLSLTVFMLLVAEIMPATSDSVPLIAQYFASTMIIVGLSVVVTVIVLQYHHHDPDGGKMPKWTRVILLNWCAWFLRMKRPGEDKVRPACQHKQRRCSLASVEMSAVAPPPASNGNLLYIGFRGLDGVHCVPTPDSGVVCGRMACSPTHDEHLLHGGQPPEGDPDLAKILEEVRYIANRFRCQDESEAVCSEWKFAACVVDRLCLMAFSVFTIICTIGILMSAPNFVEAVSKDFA
# Experimental: The evaluation of binding at the nicotinic α-7 receptor was carried out at Eurofins Pharma Services.
# [1] = approximate IC50, calcium flux, 5-HT3a expressed in HEK-293T cells, 5HT 216 nM, read-out: IC50
# Chain of 5-HT3a receptor (P46098 24-478): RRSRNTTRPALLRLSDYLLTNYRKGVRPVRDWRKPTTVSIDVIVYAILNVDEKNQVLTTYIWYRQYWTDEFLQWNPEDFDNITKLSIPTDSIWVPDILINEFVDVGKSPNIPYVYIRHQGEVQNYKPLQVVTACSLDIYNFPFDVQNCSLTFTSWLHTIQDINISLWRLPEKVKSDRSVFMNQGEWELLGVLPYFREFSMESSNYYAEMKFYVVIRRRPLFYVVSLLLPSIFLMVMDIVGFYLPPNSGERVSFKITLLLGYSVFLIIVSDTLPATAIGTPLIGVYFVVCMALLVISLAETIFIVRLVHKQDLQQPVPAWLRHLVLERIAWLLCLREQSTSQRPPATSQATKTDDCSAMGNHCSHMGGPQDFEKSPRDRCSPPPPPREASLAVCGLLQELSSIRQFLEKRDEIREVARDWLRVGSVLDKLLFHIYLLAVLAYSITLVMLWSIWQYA
Structure (SMILES),pIC50 (5-HT3a receptor),pIC50 (nicotinic α-7 receptor),pIC50 (5-HT3a receptor; [1])
"CN1C2COCC1CC(OC(=O)c1c[nH]c3ccccc13)C2 [Reference 7, (1R,5S,7S)-9-methyl-3-oxa-9-azabicyclo[3.3.1]nonan-7-yl 1H-indole-3-carboxylate, reference compound]",7.05,5.78,–
"CN1[C@@H]2COC[C@H]1C[C@@H](NC(=O)c1cn(-c3cnn(C)c3)c3ccccc13)C2 [Compound 15, 1-(1-methyl-1H-pyrazol-4-yl)-N-((1R,5S,7S)-9-methyl-3-oxa-9-azabicyclo[3.3.1]nonan-7-yl)-1H-indole-3-carboxamide, 2,2,2-trifluoroacetic acid salt]",8.46,< 5.00,9.18
"CN1[C@@H]2COC[C@H]1C[C@@H](NC(=O)c1cn(-c3ccccn3)c3ncccc13)C2 [Compound 10, N-(1R,5S,7S)-9-methyl-3-oxa-9-azabicyclo[3.3.1]nonan-7-yl)-1-(pyridin-2-yl)-1H-pyrrolo[2,3-b]pyridine-3-carboxamide, 2,2,2-trifluoroacetic acid salt]",–,–,9.19
"O=C(O[C@H]1C[C@H]2COC[C@@H](C1)N2)c1cn(-c2cccnc2)c2ccccc12 [Compound 5, (1R,5S,7S)-3-oxa-9-azabicyclo [3.3.1]nonan-7-yl 1-(pyridin-3-yl)-1H-indole-3-carboxylate, 2,2,2-trifluoroacetate]",–,–,9.21
"CN1[C@@H]2COC[C@H]1CC(NC(=O)c1cn(-c3ccncc3)c3ccccc13)C2 (stereo partly drawn) [Compound 4, N-((1R,5S,7S)-9-methyl-3-oxa-9-azabicyclo[3.3.1]nonan-7-yl)-1-(pyridin-4-yl)-1H-indole-3-carboxamide, 2,2,2-trifluoroacetate]",–,–,9.16
